Assay results reported in patent US6291432A (Japan Energy Corporation, priority 1996, dated 2001).
≈ marks a conversion by molar mass, not a printed value.

Columns and labels:
[1] = system: CEM-SS cell; assay: Cytotoxicity in HIV virus non-infected CEM-SS cells (XTT method); format: cell-based; settings: six days, highest concentration 1.0 μg/ml
Experimental: (§1) EP 0751145 A2). On a 96-well micro titre plate, the test compounds were added to the culture medium in various concentrations, then the HIV infected CEM-SS cell was added and incubated for six days at 37° C. using a CO2 incubator. The number of the living cells was then measured by a XTT method. On the other hand, in order to examine the cytotoxicity of the test compounds, the test compounds were added in various concentrations and the HIV virus non-infected cell was incubated under similar conditions. As the reference group, the HIV infected CEM-SS cell was incubated without the addition of the test compounds. Moreover, the HIV virus non-infected cell was incubated without the addition of the test compound as the control group. The anti-virus activity was evaluated in a concentration in which the cytotoxic effect caused by the HIV infected virus in the above HIV infected cell group was inhibited 50 percent (EC50, 50% effective concentration), and the cytotoxicity was evaluated in a concentration in which the cytotoxic effect by the addition of the test compound in the HIV virus non-infected cell group occurred at 50 percent (TC50, 50% cytotoxic concentration) respectively.

[2] = system: HIV virus strain HIV-1 IIIB; assay: Anti-HIV activity in HIV infected CEM-SS cells (XTT method); format: cell-based; settings: Human immunodeficiency virus 1, 144 h, HIV-1 IIIB infected CEM-SS cell, six days at 37° C.
Experimental: as §1

[3] = Pharmacokinetics test (digestive tract absorption and metabolic characteristics) in rats; format: in vivo; settings: 10 mg/kg; for F (biological utilization rate of administration in the duodenum): Id versus Iv; for MRT / T1/2 (λ): Iv; for T1/2 (λ): final phase half-life
Experimental: The metabolic characteristics of the tripeptide compound of the present invention were evaluated using rats for a test animal. As the Control Example, the result of KNI-272 ((R)-N-tert-butyl-3-{(2S,3S)-2-hydroxy-3-[N-(isoquinolin-5-yloxy)acetyl-me thylthio-L-alanyl]amino-4-phenylbutanoyl}-1,3-thiazolidine-4-carboxamide; iQoa-Mta-Apns-Thz-NHtBu) which is a tripeptide derivative known in the art, is also shown. The amount administred was 10 mg/kg. The evaluated administration methods are a method (id) of administering a solution of a fixed amount of the test compound in the duodenum of a test animal, and a method (iv) of administering the solution intravenously. After administration, blood samples were taken from the test animal and concentrations of the residual test compound in the plasma were analyzed. As indices concerning pharmacokinetics, AUC (area under medicine concentration curve in plasma), MRT (mean residence time), t1/2 (λ) (final phase half-life period), and the biological utilization rate of administration in the duodenum F were calculated.

[4] = biological target: T1, recombinant HIV-1 protease (Human immunodeficiency virus type 1 group M subtype B, UniProt P04585); assay: HIV protease inhibition activity (enzyme activity inhibition rate); format: biochemical; settings: 50 nM final concentration of test compound; 60 min at 37° C.; read-out: Enzyme activity inhibition rate (%) (addition concentration of 50 nM)
T1 construct: measured using a recombinant HIV-1 protease
Experimental: The protease activity was measured using a recombinant HIV-1 protease (see Biochemistry, 250 (9)-264 (1990)) and a synthesized peptide substrate. The inhibition rate was calculated by determining a peptide fragment generated by cleavage between Tyr-Pro of the synthesized substrate after the reaction of 60 min at 37° C. using a reversed phase HPLC in the presence of the test compounds in various concentrations (see, for example, Japanese Patent Application Laid-open No. 170722/1993).
Examples of the evaluation results of the HIV protease inhibition activity of the tripeptide compound of the present invention by the above-described method is shown in Table 1. […] The concentration of the test compounds in Table 1 represents the final concentration in the reaction mixture.

[5] = biological target: T1, recombinant HIV-1 protease; assay: Evaluation of enzyme inhibition constant Ki; format: biochemical
Experimental: The synthesized peptide substrate having a sequence of H-Lys-Ala-Arg-Val-Tyr-Phe (4-NO2)-Glu-Ala-Nle-NH2 (SEQ ID NO. 1) was used in this experiment. The enzyme reaction was measured using a reversed phase HPLC by determining the C-terminal peptide fraction produced by cleavage just behind Tyr in the synthesized substrate which is obtained by reacting the following composition for 15 min. at 37° C. and stopping the reaction by the addition of 1N HCl (75 μl).
Composition of reaction mixture
Recombinant HIV-1 protease enzyme solution 10 μl
0.5 mM synthetic substrate aqueous solution 10 μl
DMSO Inhibitor solution 5 μl
0.2 M MES solution 25 μl
(1 M NaCl, 2 mM EDTA-2Na, 2 mM DTT, pH 5.5)
Column: Waters Nova-pak C18 (3.9×75 mm)
Eluent: A; water (0.1% TFA)
B; acetonitrile (0.1% TFA)
Flow rate: 2 ml/min isocratic; 10% B solution
Detection: Fluorescence 305 nm, excitation 275 nm

CC(C)c1nc(CN(C)C(=O)N[C@H](C(=O)N[C@@H](Cc2ccccc2)C[C@H](O)[C@H](Cc2ccccc2)NC(=O)OCc2cncs2)C(C)C)cs1 [Ritonavir, reference compound]
Cytotoxicity TC50 [1]: > 1.0 µg/mL | EC50 [2]: 0.033 µg/mL (≈ 0.0458 µM)

CC[C@H](NC(=O)COc1cccc(N(C)C)c1)C(=O)N[C@@H](Cc1ccccc1)[C@H](O)C(=O)N1CSC(C)(C)[C@H]1C(=O)NC(C)(C)C [Example 36, (R)-N-tert-butyl-3-{(2S,3S)-2-hydroxy-3-[(S)-2-(3-dimethylaminophenoxyacetyl)aminobutanoyl]amino-4-phenylbutanoyl}-5,5-dimethyl-1,3-thiazolidine-4-car boxamide]
Cytotoxicity TC50 [1]: > 1.0 µg/mL | EC50 [2]: 0.017 µg/mL (≈ 0.0259 µM) | AUC ([3]; Id (in the duodenum)): 185 µg·min/mL | F (biological utilization rate of administration in the duodenum) [3]: 82% | MRT [3]: 2.07 h | AUC ([3]; Iv (intravenous)): 226 µg·min/mL | T1/2 (λ) [3]: 1.83 h | inhibition at 0.05 µM [4]: 95%

CC(C)[C@H](NC(=O)COc1cccc(N(C)C)c1)C(=O)N[C@@H](Cc1ccccc1)[C@H](O)C(=O)N1CSC(C)(C)[C@H]1C(=O)NC(C)(C)C [Example 35, (R)-N-tert-butyl-3-{(2S,3S)-2-hydroxy-3-[(S)-2-(3-dimethylaminophenoxyacetyl)amino-3-methylbutanoyl]amino-4-phenylbutanoyl}-5,5-dimethyl-1,3-thiazolidine-4-carboxamide]
Cytotoxicity TC50 [1]: > 1.0 µg/mL | EC50 [2]: 0.01 µg/mL (≈ 0.0149 µM) | AUC ([3]; Id (in the duodenum)): 105 µg·min/mL | F (biological utilization rate of administration in the duodenum) [3]: 89% | MRT [3]: 1.13 h | AUC ([3]; Iv (intravenous)): 119 µg·min/mL | T1/2 (λ) [3]: 1.05 h | inhibition at 0.05 µM [4]: 96% | Ki [5]: 0.07 nM

COC(=O)N[C@H](C(=O)N[C@@H](Cc1ccccc1)[C@H](O)C(=O)N1CSC(C)(C)[C@H]1C(=O)NCc1ccccc1C)C(C)C [Example 27, (R)-N-(2-methylbenzyl)-3-{(2S,3S)-2-hydroxy-3-[(S)-2-(methoxycarbonyl)amino-3-methylbutanoyl]amino-4-phenylbutanoyl}-5,5-dimethyl-1,3-thiazolidine-4-c arboxamide]
Cytotoxicity TC50 [1]: > 1.0 µg/mL | EC50 [2]: 0.026 µg/mL (≈ 0.0434 µM) | AUC ([3]; Id (in the duodenum)): 87 µg·min/mL | F (biological utilization rate of administration in the duodenum) [3]: 32% | MRT [3]: 1.18 h | AUC ([3]; Iv (intravenous)): 272 µg·min/mL | T1/2 (λ) [3]: 1.45 h | inhibition at 0.05 µM [4]: 94.9%

COc1cccc2cc(C(=O)N[C@H](C(=O)N[C@@H](Cc3ccccc3)[C@H](O)C(=O)N3CSC(C)(C)[C@H]3C(=O)NCc3ccccc3C)C(C)C)oc12 [Example 16, (R)-N-(2-methylbenzyl)-3-{(2S,3S)-3-[N-(7-methoxybenzofuran-2-carbonyl)-L-valyl]amino-2-hydroxy-4-phenylbutanoyl}-5,5-dimethyl-1,3-thiazolidine-4-carb oxamide]
Cytotoxicity TC50 [1]: > 1.0 µg/mL | EC50 [2]: 0.0017 µg/mL (≈ 0.00238 µM) | AUC ([3]; Id (in the duodenum)): 90 µg·min/mL | F (biological utilization rate of administration in the duodenum) [3]: 27% | MRT [3]: 1.12 h | AUC ([3]; Iv (intravenous)): 322 µg·min/mL | T1/2 (λ) [3]: 1.23 h | inhibition at 0.05 µM [4]: 97.1% | Ki [5]: 0.014 nM
